In brackets after ≈: the same amount, converted by molar mass.
Experiments:
Assay type in all cases: functional
[1] = system: Penicillium; assay: Antimicrobial activity against Penicillium wild strain assessed as diameter of growth inhibition zone at 250 ug/ml after 48-96 hr by agar cup diffusion method; settings: read-out: DIZ
[2] = system: Penicillium; assay: Antimicrobial activity against Penicillium wild strain assessed as diameter of growth inhibition zone at 100 ug/ml after 48-96 hr by agar cup diffusion method; settings: read-out: DIZ
[3] = system: Trichophyton rubrum; assay: Antimicrobial activity against Trichophyton rubrum MTCC 296 assessed as diameter of growth inhibition zone at 100 ug/ml after 48-96 hr by agar cup diffusion method; settings: read-out: DIZ
[4] = system: Aspergillus clavatus; assay: Antimicrobial activity against Aspergillus clavatus MTCC 1323 assessed as diameter of growth inhibition zone at 100 ug/ml after 48-96 hr by agar cup diffusion method; settings: read-out: DIZ
[5] = system: Candida albicans; assay: Antimicrobial activity against Candida albicans MTCC 227 assessed as diameter of growth inhibition zone at 100 ug/ml after 48-96 hr by agar cup diffusion method; settings: read-out: DIZ
[6] = system: Penicillium; assay: Antimicrobial activity against Penicillium wild strain assessed as diameter of growth inhibition zone at 50 ug/ml after 48-96 hr by agar cup diffusion method; settings: read-out: DIZ
[7] = system: Trichophyton rubrum; assay: Antimicrobial activity against Trichophyton rubrum MTCC 296 assessed as diameter of growth inhibition zone at 50 ug/ml after 48-96 hr by agar cup diffusion method; settings: read-out: DIZ
[8] = system: Aspergillus clavatus; assay: Antimicrobial activity against Aspergillus clavatus MTCC 1323 assessed as diameter of growth inhibition zone at 50 ug/ml after 48-96 hr by agar cup diffusion method; settings: read-out: DIZ
[9] = system: Candida albicans; assay: Antimicrobial activity against Candida albicans MTCC 227 assessed as diameter of growth inhibition zone at 50 ug/ml after 48-96 hr by agar cup diffusion method; settings: read-out: DIZ
[10] = system: Penicillium; assay: Antimicrobial activity against Penicillium wild strain assessed as diameter of growth inhibition zone at 25 ug/ml after 48-96 hr by agar cup diffusion method; settings: read-out: DIZ
[11] = system: Trichophyton rubrum; assay: Antimicrobial activity against Trichophyton rubrum MTCC 296 assessed as diameter of growth inhibition zone at 25 ug/ml after 48-96 hr by agar cup diffusion method; settings: read-out: DIZ
[12] = system: Aspergillus clavatus; assay: Antimicrobial activity against Aspergillus clavatus MTCC 1323 assessed as diameter of growth inhibition zone at 25 ug/ml after 48-96 hr by agar cup diffusion method; settings: read-out: DIZ
[13] = system: Candida albicans; assay: Antimicrobial activity against Candida albicans MTCC 227 assessed as diameter of growth inhibition zone at 25 ug/ml after 48-96 hr by agar cup diffusion method; settings: read-out: DIZ
[14] = system: Penicillium; assay: Antimicrobial activity against Penicillium wild strain by agar cup diffusion method
[15] = system: Aspergillus clavatus; assay: Antimicrobial activity against Aspergillus clavatus MTCC 1323 by agar cup diffusion method
[16] = system: Pseudomonas aeruginosa; assay: Antimicrobial activity against Pseudomonas aeruginosa MTCC 1688 assessed as diameter of growth inhibition zone at 25 ug/ml after 18-24 hr by agar cup diffusion method; settings: read-out: DIZ
[17] = system: Escherichia coli; assay: Antimicrobial activity against Escherichia coli MTCC 443 assessed as diameter of growth inhibition zone at 25 ug/ml after 18-24 hr by agar cup diffusion method; settings: read-out: DIZ
[18] = system: Staphylococcus aureus; assay: Antimicrobial activity against Staphylococcus aureus MTCC 96 assessed as diameter of growth inhibition zone at 25 ug/ml after 18-24 hr by agar cup diffusion method; settings: read-out: DIZ
[19] = system: Streptococcus pyogenes; assay: Antimicrobial activity against Streptococcus pyogenes MTCC 442 assessed as diameter of growth inhibition zone at 25 ug/ml after 18-24 hr by agar cup diffusion method; settings: read-out: DIZ
[20] = system: Klebsiella pneumoniae; assay: Antimicrobial activity against Klebsiella pneumoniae MTCC 109 by agar cup diffusion method
[21] = system: Escherichia coli; assay: Antimicrobial activity against Escherichia coli MTCC 443 by agar cup diffusion method
[22] = system: Pseudomonas aeruginosa; assay: Antimicrobial activity against Pseudomonas aeruginosa MTCC 1688 by agar cup diffusion method
[23] = system: Staphylococcus aureus; assay: Antimicrobial activity against Staphylococcus aureus MTCC 96 by agar cup diffusion method
[24] = system: Streptococcus pyogenes; assay: Antimicrobial activity against Streptococcus pyogenes MTCC 442 by agar cup diffusion method
[25] = system: Trichophyton rubrum; assay: Antimicrobial activity against Trichophyton rubrum MTCC 296 by agar cup diffusion method
[26] = system: Candida albicans; assay: Antimicrobial activity against Candida albicans MTCC 227 by agar cup diffusion method
[27] = system: Klebsiella pneumoniae; assay: Antimicrobial activity against Klebsiella pneumoniae MTCC 109 assessed as diameter of growth inhibition zone at 250 ug/ml after 18-24 hr by agar cup diffusion method; settings: read-out: DIZ
[28] = system: Pseudomonas aeruginosa; assay: Antimicrobial activity against Pseudomonas aeruginosa MTCC 1688 assessed as diameter of growth inhibition zone at 250 ug/ml after 18-24 hr by agar cup diffusion method; settings: read-out: DIZ
[29] = system: Escherichia coli; assay: Antimicrobial activity against Escherichia coli MTCC 443 assessed as diameter of growth inhibition zone at 250 ug/ml after 18-24 hr by agar cup diffusion method; settings: read-out: DIZ
[30] = system: Staphylococcus aureus; assay: Antimicrobial activity against Staphylococcus aureus MTCC 96 assessed as diameter of growth inhibition zone at 250 ug/ml after 18-24 hr by agar cup diffusion method; settings: read-out: DIZ
[31] = system: Streptococcus pyogenes; assay: Antimicrobial activity against Streptococcus pyogenes MTCC 442 assessed as diameter of growth inhibition zone at 250 ug/ml after 18-24 hr by agar cup diffusion method; settings: read-out: DIZ
[32] = system: Klebsiella pneumoniae; assay: Antimicrobial activity against Klebsiella pneumoniae MTCC 109 assessed as diameter of growth inhibition zone at 100 ug/ml after 18-24 hr by agar cup diffusion method; settings: read-out: DIZ
[33] = system: Pseudomonas aeruginosa; assay: Antimicrobial activity against Pseudomonas aeruginosa MTCC 1688 assessed as diameter of growth inhibition zone at 100 ug/ml after 18-24 hr by agar cup diffusion method; settings: read-out: DIZ
[34] = system: Escherichia coli; assay: Antimicrobial activity against Escherichia coli MTCC 443 assessed as diameter of growth inhibition zone at 100 ug/ml after 18-24 hr by agar cup diffusion method; settings: read-out: DIZ
[35] = system: Staphylococcus aureus; assay: Antimicrobial activity against Staphylococcus aureus MTCC 96 assessed as diameter of growth inhibition zone at 100 ug/ml after 18-24 hr by agar cup diffusion method; settings: read-out: DIZ
[36] = system: Streptococcus pyogenes; assay: Antimicrobial activity against Streptococcus pyogenes MTCC 442 assessed as diameter of growth inhibition zone at 100 ug/ml after 18-24 hr by agar cup diffusion method; settings: read-out: DIZ
[37] = system: Klebsiella pneumoniae; assay: Antimicrobial activity against Klebsiella pneumoniae MTCC 109 assessed as diameter of growth inhibition zone at 50 ug/ml after 18-24 hr by agar cup diffusion method; settings: read-out: DIZ
[38] = system: Pseudomonas aeruginosa; assay: Antimicrobial activity against Pseudomonas aeruginosa MTCC 1688 assessed as diameter of growth inhibition zone at 50 ug/ml after 18-24 hr by agar cup diffusion method; settings: read-out: DIZ
[39] = system: Escherichia coli; assay: Antimicrobial activity against Escherichia coli MTCC 443 assessed as diameter of growth inhibition zone at 50 ug/ml after 18-24 hr by agar cup diffusion method; settings: read-out: DIZ
[40] = system: Staphylococcus aureus; assay: Antimicrobial activity against Staphylococcus aureus MTCC 96 assessed as diameter of growth inhibition zone at 50 ug/ml after 18-24 hr by agar cup diffusion method; settings: read-out: DIZ
[41] = system: Streptococcus pyogenes; assay: Antimicrobial activity against Streptococcus pyogenes MTCC 442 assessed as diameter of growth inhibition zone at 50 ug/ml after 18-24 hr by agar cup diffusion method; settings: read-out: DIZ
[42] = system: Klebsiella pneumoniae; assay: Antimicrobial activity against Klebsiella pneumoniae MTCC 109 assessed as diameter of growth inhibition zone at 25 ug/ml after 18-24 hr by agar cup diffusion method; settings: read-out: DIZ
[43] = system: Trichophyton rubrum; assay: Antimicrobial activity against Trichophyton rubrum MTCC 296 assessed as diameter of growth inhibition zone at 250 ug/ml after 48-96 hr by agar cup diffusion method; settings: read-out: DIZ
[44] = system: Aspergillus clavatus; assay: Antimicrobial activity against Aspergillus clavatus MTCC 1323 assessed as diameter of growth inhibition zone at 250 ug/ml after 48-96 hr by agar cup diffusion method; settings: read-out: DIZ
[45] = system: Candida albicans; assay: Antimicrobial activity against Candida albicans MTCC 227 assessed as diameter of growth inhibition zone at 250 ug/ml after 48-96 hr by agar cup diffusion method; settings: read-out: DIZ

COc1ccc(/C=C/C(=O)C2C(=O)NC(=S)NC2=O)cc1OC
zone of inhibition at 250 µg/mL [1]: 24 mm | zone of inhibition at 100 µg/mL [2]: 22 mm | zone of inhibition at 100 µg/mL [3]: 23 mm | zone of inhibition at 100 µg/mL [4]: 21 mm | zone of inhibition at 100 µg/mL [5]: 25 mm | zone of inhibition at 50 µg/mL [6]: 20 mm | zone of inhibition at 50 µg/mL [7]: 22 mm | zone of inhibition at 50 µg/mL [8]: 20 mm | zone of inhibition at 50 µg/mL [9]: 24 mm | zone of inhibition at 25 µg/mL [10]: 19 mm | zone of inhibition at 25 µg/mL [11]: 21 mm | zone of inhibition at 25 µg/mL [12]: 18 mm | zone of inhibition at 25 µg/mL [13]: 20 mm | MFC [14]: 1000 µg/mL (≈ 2990 µM) | MIC [14]: 1000 µg/mL (≈ 2990 µM) | MFC [15]: 1000 µg/mL (≈ 2990 µM) | MIC [15]: 1000 µg/mL (≈ 2990 µM) | zone of inhibition at 25 µg/mL [16]: 11 mm | zone of inhibition at 25 µg/mL [17]: 12 mm | zone of inhibition at 25 µg/mL [18]: 11 mm | zone of inhibition at 25 µg/mL [19]: 12 mm | MBC [20]: 500 µg/mL (≈ 1500 µM) | MIC [20]: 250 µg/mL (≈ 748 µM) | MBC [21]: 500 µg/mL (≈ 1500 µM) | MIC [21]: 500 µg/mL (≈ 1500 µM) | MBC [22]: 200 µg/mL (≈ 598 µM) | MIC [22]: 200 µg/mL (≈ 598 µM) | MBC [23]: 500 µg/mL (≈ 1500 µM) | MIC [23]: 500 µg/mL (≈ 1500 µM) | MBC [24]: 100 µg/mL (≈ 299 µM) | MIC [24]: 62.5 µg/mL (≈ 187 µM) | MFC [25]: 500 µg/mL (≈ 1500 µM) | MIC [25]: 500 µg/mL (≈ 1500 µM) | MFC [26]: 1000 µg/mL (≈ 2990 µM) | MIC [26]: 500 µg/mL (≈ 1500 µM) | zone of inhibition at 250 µg/mL [27]: 19 mm | zone of inhibition at 250 µg/mL [28]: 20 mm | zone of inhibition at 250 µg/mL [29]: 21 mm | zone of inhibition at 250 µg/mL [30]: 20 mm | zone of inhibition at 250 µg/mL [31]: 21 mm | zone of inhibition at 100 µg/mL [32]: 18 mm | zone of inhibition at 100 µg/mL [33]: 18 mm | zone of inhibition at 100 µg/mL [34]: 18 mm | zone of inhibition at 100 µg/mL [35]: 18 mm | zone of inhibition at 100 µg/mL [36]: 18 mm | zone of inhibition at 50 µg/mL [37]: 15 mm | zone of inhibition at 50 µg/mL [38]: 15 mm | zone of inhibition at 50 µg/mL [39]: 16 mm | zone of inhibition at 50 µg/mL [40]: 15 mm | zone of inhibition at 50 µg/mL [41]: 16 mm | zone of inhibition at 25 µg/mL [42]: 14 mm | zone of inhibition at 250 µg/mL [43]: 24 mm | zone of inhibition at 250 µg/mL [44]: 23 mm | zone of inhibition at 250 µg/mL [45]: 25 mm

— ChEMBL document CHEMBL3044736, “Synthesis, characterization, solvatochromic properties, and antimicrobial evaluation of 5-acetyl-2-thioxo-dihydro-pyrimidine-4,6-dione-based chalcones” (2013)
